{"source": "patent US20070128217A1", "about": "(priority 2003, published 2007)", "key": {"[1]": {"system": "antibodies in sera from SARS patients (sera 1a, 1b, 2, 6, 37, 62, London, SARS-yellow, SARS-green)", "assay_type": "binding, human", "design": "Binding of serum 6 to linear peptides of protein X1 of SARS-CoV Urbani / Binding of serum 37 to linear peptides of protein X1 of SARS-CoV Urbani / Binding of serum 6 to looped/cyclic peptide (PEPSCAN-ELISA) / Binding of serum 37 to looped/cyclic peptide (PEPSCAN-ELISA) / Binding of serum 37 to looped/cyclic peptides of protein X1 of SARS-CoV Urbani / Binding of serum 6 to linear peptides of protein X2 / Binding of serum 37 to linear peptides of protein X2 / Binding of serum 37 to looped/cyclic peptides of protein X2 of SARS-CoV Urbani / Binding of serum 6 to linear peptides of protein M of SARS-CoV Urbani / Binding of serum 37 to linear peptides of protein M of SARS-CoV Urbani / Binding of serum 6 to looped/cyclic peptides of protein M of SARS-CoV Urbani / Binding of serum 37 to looped/cyclic peptides of protein M of SARS-CoV Urbani / Binding of serum 6 to linear peptides of protein X3 of SARS-CoV Urbani / Binding of serum 37 to linear peptides of protein X3 of SARS-CoV Urbani / Binding of serum 37 to looped/cyclic peptides of protein X3 of SARS-CoV Urbani / Binding of serum 6 to linear peptides of protein X4 of SARS-CoV Urbani / Binding of serum 37 to linear peptides of protein X4 of SARS-CoV Urbani / Binding of serum 37 to looped/cyclic peptides of protein X4 of SARS-CoV Urbani / Binding of serum 6 to linear peptides of protein X5 of SARS-CoV Urbani / Binding of serum 37 to linear peptides of protein X5 of SARS-CoV Urbani / Binding of serum 37 to looped/cyclic peptides of protein X5 of SARS-CoV Urbani / Binding of serum 6 to linear peptides of protein N of SARS-CoV Urbani / Binding of serum 37 to linear peptides of protein N of SARS-CoV Urbani / Binding of serum 6 to linear peptide (PEPSCAN-ELISA) / Binding of serum 1a to looped/cyclic peptides of protein N of SARS-CoV Urbani / Binding of serum 1b to looped/cyclic peptides of protein N of SARS-CoV Urbani / Binding of serum 2 to looped/cyclic peptides of protein N of SARS-CoV Urbani / Binding of serum 6 to looped/cyclic peptides of protein N of SARS-CoV Urbani / Binding of serum 37 to looped/cyclic peptides of protein N of SARS-CoV Urbani / Binding of serum 62 to looped/cyclic peptides of protein N of SARS-CoV Urbani / Binding of serum London to looped/cyclic peptides of protein N of SARS-CoV Urbani / Binding of serum SARS-green to looped/cyclic peptides of protein N of SARS-CoV Urbani: unit not given here"}, "[2]": {"system": "control sera (pooled serum of ten healthy LUMC hospital workers; commercial negative donor pooled serum from the Dutch bloodbank)", "assay_type": "binding, human", "design": "Binding of Control serum LUMC to linear peptides / Binding of Control serum Blood-bank to linear peptides / Binding of Control serum LUMC to looped peptides / Binding of Control Serum Blood-Bank to Looped peptides / Binding of Control serum LUMC to linear peptides of the protein M of SARS-CoV Urbani / Binding of Control serum Blood-bank to linear peptides of the protein M of SARS-CoV Urbani / Binding of Control serum LUMC to looped peptides of the protein M of SARS-CoV Urbani / Binding of Control Serum Blood-Bank to Looped peptides of the protein M of SARS-CoV Urbani: unit not given here"}, "[3]": {"system": "rabbit serum obtained by immunizing a rabbit with the SARS-CoV strain Frankfurt 1", "assay_type": "binding", "design": "Binding of a rabbit serum to linear peptides / Binding of a rabbit serum to looped peptides / Rabbit serum linear peptides / Rabbit serum looped peptides / Binding of a rabbit serum to linear peptides of protein N of SARS-CoV Urbani (Rabbit serum linear peptides) / Binding of a rabbit serum to looped/cyclic peptides of protein N of SARS-CoV Urbani (Rabbit serum looped peptides): unit not given here"}}, "data": [{"sequence": "FLIVAALVFLILCFT", "values": [{"measurement": "Binding of serum 1a to linear peptides of protein X4 of SARS-CoV Urbani", "setting": "[1]", "result": 0.6}, {"measurement": "Binding of serum 1a to looped/cyclic peptides of protein X4 of SARS-CoV Urbani", "setting": "[1]", "result": 0.7}, {"measurement": "Binding of serum 1b to linear peptides of protein X4 of SARS-CoV Urbani", "setting": "[1]", "result": 0.5}, {"measurement": "Binding of serum 1b to looped/cyclic peptides of protein X4 of SARS-CoV Urbani", "setting": "[1]", "result": 0.4}, {"measurement": "Binding of serum 2 to linear peptides of protein X4 of SARS-CoV Urbani", "setting": "[1]", "result": 0.4}, {"measurement": "Binding of serum 2 to looped/cyclic peptides of protein X4 of SARS-CoV Urbani", "setting": "[1]", "result": 0.7}, {"measurement": "Binding of serum 6 to linear peptides of protein X4 of SARS-CoV Urbani", "setting": "[1]", "result": 0.5}, {"measurement": "Binding of serum 6 to looped/cyclic peptides of protein X4 of SARS-CoV Urbani", "setting": "[1]", "result": 0.4}, {"measurement": "Binding of serum 37 to linear peptides of protein X4 of SARS-CoV Urbani", "setting": "[1]", "result": 0.7}, {"measurement": "Binding of serum 37 to looped/cyclic peptides of protein X4 of SARS-CoV Urbani", "setting": "[1]", "result": 0.7}, {"measurement": "Binding of serum 62 to linear peptides of protein X4 of SARS-CoV Urbani", "setting": "[1]", "result": 0.7}, {"measurement": "Binding of serum 62 to looped/cyclic peptides of protein X4 of SARS-CoV Urbani", "setting": "[1]", "result": 0.6}, {"measurement": "Binding of serum London to linear peptides of protein X4 of SARS-CoV Urbani", "setting": "[1]", "result": 0.6}, {"measurement": "Binding of serum London to looped/cyclic peptides of protein X4 of SARS-CoV Urbani", "setting": "[1]", "result": 0.3}, {"measurement": "Binding of serum SARS-green to linear peptides of protein X4 of SARS-CoV Urbani", "setting": "[1]", "result": 0.5}, {"measurement": "Binding of serum SARS-green to looped/cyclic peptides of protein X4 of SARS-CoV Urbani", "setting": "[1]", "result": 0.5}, {"measurement": "Binding of serum SARS-yellow to linear peptides of protein X4 of SARS-CoV Urbani", "setting": "[1]", "result": 0.7}, {"measurement": "Binding of serum SARS-yellow to looped/cyclic peptides of protein X4 of SARS-CoV Urbani", "setting": "[1]", "result": 0.5}, {"measurement": "Binding of Control Serum Blood-Bank to Looped peptides", "setting": "[2]", "result": 0.7}, {"measurement": "Binding of Control serum Blood-bank to linear peptides", "setting": "[2]", "result": 0.4}, {"measurement": "Binding of Control serum LUMC to linear peptides", "setting": "[2]", "result": 0.4}, {"measurement": "Binding of Control serum LUMC to looped peptides", "setting": "[2]", "result": 0.6}, {"measurement": "Rabbit serum linear peptides", "setting": "[3]", "result": 0.4}, {"measurement": "Rabbit serum looped peptides", "setting": "[3]", "result": 0.3}]}, {"sequence": "FLTLIVFTSCELYHY", "values": [{"measurement": "Binding of serum 1a to linear peptides of protein X4 of SARS-CoV Urbani", "setting": "[1]", "result": 0.7}, {"measurement": "Binding of serum 1a to looped/cyclic peptides of protein X4 of SARS-CoV Urbani", "setting": "[1]", "result": 0.8}, {"measurement": "Binding of serum 1b to linear peptides of protein X4 of SARS-CoV Urbani", "setting": "[1]", "result": 0.6}, {"measurement": "Binding of serum 1b to looped/cyclic peptides of protein X4 of SARS-CoV Urbani", "setting": "[1]", "result": 1.7}, {"measurement": "Binding of serum 2 to linear peptides of protein X4 of SARS-CoV Urbani", "setting": "[1]", "result": 0.5}, {"measurement": "Binding of serum 2 to looped/cyclic peptides of protein X4 of SARS-CoV Urbani", "setting": "[1]", "result": 0.8}, {"measurement": "Binding of serum 6 to linear peptides of protein X4 of SARS-CoV Urbani", "setting": "[1]", "result": 0.5}, {"measurement": "Binding of serum 6 to looped/cyclic peptides of protein X4 of SARS-CoV Urbani", "setting": "[1]", "result": 0.5}, {"measurement": "Binding of serum 37 to linear peptides of protein X4 of SARS-CoV Urbani", "setting": "[1]", "result": 0.7}, {"measurement": "Binding of serum 37 to looped/cyclic peptides of protein X4 of SARS-CoV Urbani", "setting": "[1]", "result": 0.7}, {"measurement": "Binding of serum 62 to linear peptides of protein X4 of SARS-CoV Urbani", "setting": "[1]", "result": 0.7}, {"measurement": "Binding of serum 62 to looped/cyclic peptides of protein X4 of SARS-CoV Urbani", "setting": "[1]", "result": 0.7}, {"measurement": "Binding of serum London to linear peptides of protein X4 of SARS-CoV Urbani", "setting": "[1]", "result": 0.6}, {"measurement": "Binding of serum London to looped/cyclic peptides of protein X4 of SARS-CoV Urbani", "setting": "[1]", "result": 0.3}, {"measurement": "Binding of serum SARS-green to linear peptides of protein X4 of SARS-CoV Urbani", "setting": "[1]", "result": 0.6}, {"measurement": "Binding of serum SARS-green to looped/cyclic peptides of protein X4 of SARS-CoV Urbani", "setting": "[1]", "result": 0.3}, {"measurement": "Binding of serum SARS-yellow to linear peptides of protein X4 of SARS-CoV Urbani", "setting": "[1]", "result": 0.6}, {"measurement": "Binding of serum SARS-yellow to looped/cyclic peptides of protein X4 of SARS-CoV Urbani", "setting": "[1]", "result": 0.7}, {"measurement": "Binding of Control Serum Blood-Bank to Looped peptides", "setting": "[2]", "result": 0.6}, {"measurement": "Binding of Control serum Blood-bank to linear peptides", "setting": "[2]", "result": 0.6}, {"measurement": "Binding of Control serum LUMC to linear peptides", "setting": "[2]", "result": 0.7}, {"measurement": "Binding of Control serum LUMC to looped peptides", "setting": "[2]", "result": 0.7}, {"measurement": "Rabbit serum linear peptides", "setting": "[3]", "result": 0.4}, {"measurement": "Rabbit serum looped peptides", "setting": "[3]", "result": 0.5}]}, {"sequence": "FLWLLWPVTLACFVL", "values": [{"measurement": "Binding of serum 1a to linear peptides of protein M of SARS-CoV Urbani", "setting": "[1]", "result": 0.6}, {"measurement": "Binding of serum 1a to looped/cyclic peptides of protein M of SARS-CoV Urbani", "setting": "[1]", "result": 0.6}, {"measurement": "Binding of serum 1b to linear peptides of protein M of SARS-CoV Urbani", "setting": "[1]", "result": 0.4}, {"measurement": "Binding of serum 1b to looped/cyclic peptides of protein M of SARS-CoV Urbani", "setting": "[1]", "result": 0.5}, {"measurement": "Binding of serum 2 to linear peptides of protein M of SARS-CoV Urbani", "setting": "[1]", "result": 0.5}, {"measurement": "Binding of serum 2 to looped/cyclic peptides of protein M of SARS-CoV Urbani", "setting": "[1]", "result": 0.6}, {"measurement": "Binding of serum 6 to linear peptides of protein M of SARS-CoV Urbani", "setting": "[1]", "result": 0.3}, {"measurement": "Binding of serum 6 to looped/cyclic peptides of protein M of SARS-CoV Urbani", "setting": "[1]", "result": 0.4}, {"measurement": "Binding of serum 37 to linear peptides of protein M of SARS-CoV Urbani", "setting": "[1]", "result": 0.6}, {"measurement": "Binding of serum 37 to looped/cyclic peptides of protein M of SARS-CoV Urbani", "setting": "[1]", "result": 0.6}, {"measurement": "Binding of serum 62 to linear peptides of protein M of SARS-CoV Urbani", "setting": "[1]", "result": 0.7}, {"measurement": "Binding of serum 62 to looped/cyclic peptides of protein M of SARS-CoV Urbani", "setting": "[1]", "result": 0.6}, {"measurement": "Binding of serum London to linear peptides of protein M of SARS-CoV Urbani", "setting": "[1]", "result": 0.4}, {"measurement": "Binding of serum London to looped/cyclic peptides of protein M of SARS-CoV Urbani", "setting": "[1]", "result": 0.2}, {"measurement": "Binding of serum SARS-green to linear peptides of protein M of SARS-CoV Urbani", "setting": "[1]", "result": 0.2}, {"measurement": "Binding of serum SARS-green to looped/cyclic peptides of protein M of SARS-CoV Urbani", "setting": "[1]", "result": 0.2}, {"measurement": "Binding of serum SARS-yellow to linear peptides of protein M of SARS-CoV Urbani", "setting": "[1]", "result": 0.1}, {"measurement": "Binding of serum SARS-yellow to looped/cyclic peptides of protein M of SARS-CoV Urbani", "setting": "[1]", "result": 0.7}, {"measurement": "Binding of Control Serum Blood-Bank to Looped peptides of the protein M of SARS-CoV Urbani", "setting": "[2]", "result": 0.5}, {"measurement": "Binding of Control serum Blood-bank to linear peptides of the protein M of SARS-CoV Urbani", "setting": "[2]", "result": 0.4}, {"measurement": "Binding of Control serum LUMC to linear peptides of the protein M of SARS-CoV Urbani", "setting": "[2]", "result": 0.2}, {"measurement": "Binding of Control serum LUMC to looped peptides of the protein M of SARS-CoV Urbani", "setting": "[2]", "result": 0.7}, {"measurement": "Rabbit serum linear peptides", "setting": "[3]", "result": 0.3}, {"measurement": "Rabbit serum looped peptides", "setting": "[3]", "result": 0.4}]}]}
